Earlier results, collected in paper PMC5381245 (Theranostics, 2017).

Tested on: tumor
Details: 2 h p.i.

Row | tumor uptake [%ID/g] | tumor-to-kidney uptake ratio | tumor-to-kidneys uptake ratio | Substance
1 | 13.4 ± 1.6 | – | – | NOTA-GlyGly-Nle-CycMSHhex (sidechain bridge or staple) [^64Cu-labeled NOTA-GlyGly-Nle-CycMSHhex]
2 | – | 2.8 | – | ^111In-DOTA-GlyGly-Nle-CycMSHhex (sidechain bridge or staple)
3 | 19.4 ± 1.7 | – | 2.0 | ^111In-DOTA-Nle-CycMSHhex (sidechain bridge or staple)
